Assays:
MCF-7 tumors = test: Growth of MCF-7 tumors implanted in ventral fat pad of nude mice, tumor size by MRI; format: in vivo; conditions: TMI pellet 6.3 mg 45-day release, 25 day time course
Protocol: Female CD1-nu/nu athymic mice (6 weeks old) were obtained from the Weizmann Institute Department of Animal Services. MCF-7 cells, serially passed as described above, were detached from the culturing flasks with 0.03% EDTA in phosphate buffered saline (PBS) and washed several times in normal saline. Cells (10^7/innoculum) were then injected into the ventral fat pad at the level of the breast. Coincident with cell introduction, a slow-release pellet of estradiol (0.72 mg/pellet, 45-day release profile; Innovative Research, Sarasota, Fla.) was implanted subcutaneously in the flank of the animal. Mice were anesthetized with ketamine/Rompun (i.p.) for the surgical procedures. […] At this point, animals were randomized into four study groups. In the first, the estrogen pellet was removed and replaced with a slow-release TMI-laden pellet (6.3 mg, 45-day release) (n=5). In the second group, the estrogen pellet was removed and replaced with a tamoxifen pellet (n=7). The third group was treated with a blank (placebo) pellet (n=5), while the fourth group was reimplanted with an estradiol pellet (n=4). TMI and placebo-treated animals were imaged (under ketamine/Rompun anesthesia) either immediately before pellet exchange (day 0) or at day 3, 6, 12 and 25 after pellet exchange.
MRI images were recorded with a Bruker 4.7 (tesla)/30 Biospec spectrometer (Bruker Medizintechnik, Rheinstetten, Germany). 1H Spin-echo images were recorded at 200.12 MHz using a custom-made 4.5 cm rf coil with an image data matrix of 256×128 pixels. Pilot scans of the tumors were completed using a fast transverse multi-slice spin-echo sequence (giving T1-weighted spectra; inter-echo time (TE)=16 msec, recovery time (TR)=500 msec) followed by T2-weighted sequences in which axial slices perpendicular to the spine (i.e., a coronal orientation) were recorded. In the latter case, spin-echo images were obtained using a 4 cm field of view, 1 mm slice thickness, 1.2 mm slice-to-slice distance and a four-sequence average. The TE and TR were optimized to provide the best image contrast generating values of 80 and 3200 msec, respectively. This gave a total imaging time of approximately 30 min. […] Tumor size was calculated using a slice-to-slice reconstruction in which the slice surface area was obtained from histograms provided by the resident Bruker software package using the following relationship: […]
where XSA is the cross-sectional area of an internal slice, ES is the cross-sectional area of an edge slice, l is the slice thickness and ssd is the distance from the middle of one slice to the middle of the next. For image analysis, the average pixel intensity of viable portions of MCF-7 tumors was determined from a central tumor slice using histograms generated by the dedicated Bruker software package. […]

[1] = tested on: murine endothelial cells in MCF-7 tumors; test: Endothelial cell area in GSL-1 lectin stained MCF-7 tumor sections; format: in vivo, nude mice; conditions: viable areas of tumors, three days treatment, GSL-1 staining; control tumors 14%
Protocol: For specific staining of endothelial cells, paraffin-embedded sections (4 μm) were deparafinized and rehydrated. Sections were first treated with a blocking solution containing nonimmune goat serum for 30 min at room temperature and then with a 0.1 mg/ml solution of biotinylated Griffonia simplicifolia lectin (GSL-1) for 60 min. The GSL-1 lectin binds specifically to α-galactosyl residues and marks the vascular endothelium in mice. The sections were then washed with TRIS buffered saline (TBS) and treated for 30 min with avidin-biotin-peroxidase complex (Vector Laboratories, Burlingame, Calif.), after which the peroxidase was activated by incubation of the sections with 0.1 M acetate buffer (pH 5.2) containing 3% H2O2 and 3% 3-amino-9-ethylcarbazole for 5-10 min. […] The area of stained endothelial cells was determined by measuring the area above a threshold intensity (red 46-165; green 25-119; blue 37-94) of the peroxidase reaction product in each slice. […] Ten to fifteen areas per section were recorded for tumors treated three days with either the placebo and TMI.
Vascular density of murine endothelial cells was evaluated by specific staining, using the GSL-1 lectin (the equivalent of factor VIII antibody staining for human endothelial systems) followed by color image analysis of the resulting sections. […]

## CC/C(=C(\c1ccccc1)c1ccc(OCC[N+](C)(C)C)cc1)c1ccccc1 [TMI, Tamoxifen methiodide]
MCF-7 tumors
  tumor regression (average shrinking): 20%
[1]
  mean percentage of endothelial cell areas: 5%

Source: patent US6387955B1, “Enhanced anti-angiogenic activity of permanently charged derivatives of steroid hormones” (Pharmos Corporation, priority 1997, dated 2002)
